Results taken from article PMC3076703 (Pharmacogenetics and genomics, 2010).
Residue numbers refer to the chain shown, from its start.

Assays:
[1] = individuals taking exemestane; cited from earlier work
UGT1A4^24Pro/48Leu = target: T1, UGT1A4^24Pro/48Leu (Homo sapiens, UniProt P22310); experiment: Glucuronidation assay, UGT1A4 24Pro/48Leu-overexpressing HEK293 cell homogenate; format: in vitro ADME
T1 sequence (P22310 29-534): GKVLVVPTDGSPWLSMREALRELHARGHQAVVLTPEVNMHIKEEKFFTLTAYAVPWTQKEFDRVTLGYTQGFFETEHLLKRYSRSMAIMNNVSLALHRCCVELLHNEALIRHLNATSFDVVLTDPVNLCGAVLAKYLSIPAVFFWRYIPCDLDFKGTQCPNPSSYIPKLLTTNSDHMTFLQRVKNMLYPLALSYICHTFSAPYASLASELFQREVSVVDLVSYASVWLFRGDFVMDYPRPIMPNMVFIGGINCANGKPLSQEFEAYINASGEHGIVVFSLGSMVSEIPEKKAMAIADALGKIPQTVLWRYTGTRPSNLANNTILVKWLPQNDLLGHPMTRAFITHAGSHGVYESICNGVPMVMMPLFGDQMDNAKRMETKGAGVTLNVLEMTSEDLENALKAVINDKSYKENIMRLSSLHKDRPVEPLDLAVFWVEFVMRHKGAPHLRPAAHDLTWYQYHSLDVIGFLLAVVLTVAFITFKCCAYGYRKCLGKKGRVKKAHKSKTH

[2] = system: UGTs 1A1, 1A3, 1A6, 1A7, 1A9, 2B4, 2B7, 2B10, 2B11, 2B15; format: in vitro ADME, human; settings: other UGTs screened; up to 1 mg of UGT-overexpressing cell homogenate
UGT2B17 = target: T2, UGT2B17 (Homo sapiens, UniProt O75795); format: in vitro ADME
T2 sequence (O75795 24-530): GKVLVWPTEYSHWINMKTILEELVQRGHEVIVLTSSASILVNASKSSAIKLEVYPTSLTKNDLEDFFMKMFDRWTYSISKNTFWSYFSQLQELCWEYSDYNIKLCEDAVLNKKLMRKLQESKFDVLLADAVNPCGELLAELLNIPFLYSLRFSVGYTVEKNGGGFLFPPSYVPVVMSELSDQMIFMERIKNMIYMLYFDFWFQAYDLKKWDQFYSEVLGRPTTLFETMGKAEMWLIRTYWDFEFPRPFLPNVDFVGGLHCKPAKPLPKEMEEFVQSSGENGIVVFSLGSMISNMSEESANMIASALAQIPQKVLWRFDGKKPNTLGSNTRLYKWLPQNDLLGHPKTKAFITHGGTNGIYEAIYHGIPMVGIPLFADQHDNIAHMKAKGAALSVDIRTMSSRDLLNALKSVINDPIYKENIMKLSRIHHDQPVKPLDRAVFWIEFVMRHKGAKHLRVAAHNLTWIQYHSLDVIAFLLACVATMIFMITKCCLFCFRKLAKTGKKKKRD

UGT1A8 = target: T3, UGT1A8 (Homo sapiens, UniProt Q9HAW9); experiment: Glucuronidation assay, UGT1A8-overexpressing HEK293 cell homogenate; format: in vitro ADME
T3 sequence (Q9HAW9 26-530): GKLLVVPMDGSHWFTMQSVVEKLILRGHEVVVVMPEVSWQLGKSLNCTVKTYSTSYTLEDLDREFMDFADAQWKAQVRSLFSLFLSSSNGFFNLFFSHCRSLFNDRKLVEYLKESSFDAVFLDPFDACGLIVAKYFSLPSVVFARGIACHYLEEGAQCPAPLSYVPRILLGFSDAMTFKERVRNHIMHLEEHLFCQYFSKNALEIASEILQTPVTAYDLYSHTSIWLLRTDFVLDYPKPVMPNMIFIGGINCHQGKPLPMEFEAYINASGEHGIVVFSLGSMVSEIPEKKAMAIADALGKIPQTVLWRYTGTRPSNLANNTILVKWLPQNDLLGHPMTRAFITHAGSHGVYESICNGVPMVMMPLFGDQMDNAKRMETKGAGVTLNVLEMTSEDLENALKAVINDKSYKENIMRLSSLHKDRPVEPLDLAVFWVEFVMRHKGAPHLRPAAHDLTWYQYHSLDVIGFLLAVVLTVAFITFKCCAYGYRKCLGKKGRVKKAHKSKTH

UGT1A4^24Pro/48Val = target: T4, UGT1A4^24Pro/48Val (Homo sapiens, UniProt P22310, L48V); format: in vitro ADME
T4 sequence (P22310 29-534 L48V): T1 sequence (P22310 29-534) with L20V

UGT1A4^24Thr/48Leu = target: T5, UGT1A4^24Thr/48Leu (Homo sapiens, UniProt P22310); experiment: Glucuronidation assay, UGT1A4 24Thr/48Leu-overexpressing HEK293 cell homogenate; format: in vitro ADME
T5 sequence (P22310 29-534): T1 sequence (P22310 29-534)

[3] = human; cited from earlier work

In the case of C=C1C[C@H]2[C@@H]3CC[C@H](O)[C@@]3(C)CC[C@@H]2[C@@]2(C)C=CC(=O)C=C12 [17-dihydroexemestane], the “plasma level as share of parent exemestane” value [1] is listed as 35–40%, the Km (UGT1A4^24Pro/48Leu; UGT1A4 24Pro/48Leu) is listed as 34 ± 3.9 µM and the Vmax (UGT1A4^24Pro/48Leu; UGT1A4 24Pro/48Leu, normalized per μg UGT protein) is listed as 0.27 ± 0.01 pmol/min/μg UGT protein. The “glucuronidation activity in UGT screen” value (UGT1A4^24Pro/48Leu; UGT1A4, up to 600 μmol/l substrate) was “detectable activity”, the “glucuronidation activity in UGT screen” value [2] was “None of the other UGTs screened in our assays exhibited any glucuronidation activity” and the Km (UGT2B17) was 15 ± 2.7 µM. For the same compound, the Vmax (UGT2B17; normalized per μg UGT protein) was 2.0 ± 0.25 pmol/min/μg UGT protein, the “glucuronidation activity in UGT screen” value (UGT2B17; up to 600 μmol/l substrate) was “detectable activity” and the Km (UGT1A8) was 14 ± 3.9 µM. The Vmax (UGT1A8; normalized per μg UGT protein) was 0.30 ± 0.06 pmol/min/μg UGT protein, the “glucuronidation activity in UGT screen” value (UGT1A8; up to 600 μmol/l substrate) was “detectable activity” and the Km (UGT1A4^24Pro/48Val) was 36 ± 5.4 µM. For the same compound, the Vmax (UGT1A4^24Pro/48Val; normalized per μg UGT protein) was 0.40 ± 0.03 pmol/min/μg UGT protein, the Km (UGT1A4^24Thr/48Leu) was 28 ± 7.8 µM and the Vmax (UGT1A4^24Thr/48Leu; normalized per μg UGT protein) was 0.26 ± 0.04 pmol/min/μg UGT protein.

In the case of C=C1C[C@@H]2[C@H](CC[C@]3(C)C(=O)CC[C@@H]23)[C@@]2(C)C=CC(=O)C=C12 [exemestane, 6-methylenandrosta-1,4-diene-3,17-dione], the “excreted as parent compound” value [3] is listed as 1%, the fecal excretion [3] is listed as “around 42%” and the urinary excretion [3] is listed as “around 42%”.
